Active and inactive are the calls of the source. The rule behind the calls is not given here.
How the values were obtained:
Mus musculus = assay: Dopamine antagonist activity expressed as inhibition of apomorphine-induced climbing in mice, subcutaneous administration; type: functional
Rattus norvegicus [1] = assay: Prokinetic activity expressed as stimulation of intragastric pressure in rat at the lowest active dose in mg/kg on subcutaneous administration.; type: functional
[2] = Selectivity at Dopamine receptors compared to 5-HT receptors.; type: functional
D(2) dopamine receptor = D(2) dopamine receptor (Rattus norvegicus, UniProt P61169); assay: Compound was tested against Dopamine receptor D2 by displacement of [125I]iodosulpiride radioligand from rat D2 clones
Sequence of D(2) dopamine receptor (P61169 whole entry): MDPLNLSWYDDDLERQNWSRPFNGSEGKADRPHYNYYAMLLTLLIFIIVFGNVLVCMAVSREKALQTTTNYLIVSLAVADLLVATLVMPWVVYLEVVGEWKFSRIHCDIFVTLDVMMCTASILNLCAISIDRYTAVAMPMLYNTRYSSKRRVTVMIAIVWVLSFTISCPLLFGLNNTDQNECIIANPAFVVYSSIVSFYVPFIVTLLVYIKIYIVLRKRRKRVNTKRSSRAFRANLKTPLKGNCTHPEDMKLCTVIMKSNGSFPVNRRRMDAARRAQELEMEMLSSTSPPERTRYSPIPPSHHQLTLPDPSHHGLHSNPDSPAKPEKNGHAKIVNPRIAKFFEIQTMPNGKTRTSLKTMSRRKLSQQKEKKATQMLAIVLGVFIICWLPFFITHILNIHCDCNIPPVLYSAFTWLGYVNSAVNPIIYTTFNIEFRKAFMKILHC

Rattus norvegicus [3] = assay: Antagonist activity against 5-HT3 receptor was assessed from ability to inhibit the 5-HT -induced bradycardia when dose given intravenously; inactive up to 1 mg/kg; type: functional, organism-based; set-up: dose 1 mg/kg
[4] = Mus musculus, sc, read-out: ED50

COc1cc(N)c(Cl)cc1C(=O)NC1CCN2CCCC12 (centres undefined)
ED50 (Mus musculus; [4]): 7.5 mg/kg | Activity (Rattus norvegicus [1]): 0.5 mg/kg | Ratio [2]: 15

CCN(CC)CCNC(=O)c1cc(Cl)c(N)cc1OC [METOCLOPRAMIDE]
ED50 (Mus musculus; [4]): 0.8 mg/kg | Activity (Rattus norvegicus [1]): 1 mg/kg | Ratio [2]: 0.8

COc1cc(N)c(Cl)cc1C(=O)NC1CCN2CCCCC12 (single isomer, unassigned) [listing 1 of 2 here]
Ratio [2]: 0.4

COc1cc(N)c(Cl)cc1C(=O)NC1CCN2C(CCCC2c2ccccc2)C1 (stereo in doubt; 22)
ED50 (Mus musculus): 5 mg/kg | Activity (Rattus norvegicus [1]): >5 mg/kg

COc1cc(N)c(Cl)cc1C(=O)NC1CCN2CCCCC12 (single isomer, unassigned) [listing 2 of 2 here]
ED50 (Mus musculus): 0.2 mg/kg | Activity (Rattus norvegicus [1]): 0.5 mg/kg

COc1cc(N)c(Cl)cc1C(=O)NC1CCCN2CCCCC2C1 (single isomer, unassigned; form 2) [listing 1 of 2 here]
Ratio [2]: 38

COc1cc(N)c(Cl)cc1C(=O)NC1CCN2CCCCC12 (stereo in doubt) [listing 1 of 2 here]
Ratio [2]: 1.8

COc1cc(N)c(Cl)cc1C(=O)NC1CCCN2CCCCC2C1 (single isomer, unassigned; form 2) [listing 2 of 2 here]
ED50 (Mus musculus): 38 mg/kg

COc1cc(N)c(Cl)cc1C(=O)NC1CCCN2CCCC12 (stereo in doubt; 10 (Eq))
ED50 (Mus musculus): 3.5 mg/kg | Activity (Rattus norvegicus [1]): >5 mg/kg

COc1cc(N)c(Cl)cc1C(=O)NC1CCN2C(C)CCCC2C1 (stereo in doubt)
Ratio [2]: 50

COc1cc(N)c(Cl)cc1C(=O)NCC1CCC2CCCCN21 (stereo in doubt)
ED50 (Mus musculus): 20 mg/kg | Activity (Rattus norvegicus [1]): >1 mg/kg

COc1cc(N)c(Cl)cc1C(=O)NC1CCCN2CCCC12 (stereo in doubt; 11 (Ax)) [listing 1 of 2 here]
ED50 (Mus musculus): 0.1 mg/kg | Activity (Rattus norvegicus [1]): 0.5 mg/kg

COc1cc(N)c(Cl)cc1C(=O)NC[C@H]1CCC2CCCCN2C1 (some centres undefined)
IC50 (D(2) dopamine receptor): 3.9 µM | ED50 (Mus musculus; [4]): > 25 mg/kg | Activity (Rattus norvegicus [1]): 0.2 mg/kg | Activity (Rattus norvegicus [3]): inactive | Ratio [2]: > 125

COc1cc(N)c(Cl)cc1C(=O)NC1CCN2CCCC2(C)C1 (centres undefined)
ED50 (Mus musculus; [4]): > 30 mg/kg | Activity (Rattus norvegicus [1]): >1 mg/kg

CCCC1CCCC2CC(NC(=O)c3cc(Cl)c(N)cc3OC)CCN12 (centres undefined)
ED50 (Mus musculus; [4]): > 10 mg/kg | Activity (Rattus norvegicus [1]): 1 mg/kg | Ratio [2]: > 10

COc1cc(N)c(Cl)cc1C(=O)NC1CC(C)N2CCCC2C1 (stereo in doubt; 29) [listing 1 of 2 here]
ED50 (Mus musculus): 34 mg/kg

COc1cc(N)c(Cl)cc1C(=O)NC1CCN2C(C)CCCC2C1 (stereo in doubt) [BRL-20627]
ED50 (Mus musculus; [4]): 25 mg/kg | Activity (Rattus norvegicus [1]): 0.5 mg/kg

COc1cc(N)c(Cl)cc1C(=O)NC1CC(C)N2CCCC2C1 (stereo in doubt; 30)
ED50 (Mus musculus): >50 mg/kg | Activity (Rattus norvegicus [1]): >1 mg/kg

COc1cc(N)c(Cl)cc1C(=O)NC1CCN2CC(C)CCC2C1 (stereo in doubt; 17)
ED50 (Mus musculus; [4]): > 10 mg/kg | Activity (Rattus norvegicus [1]): >5 mg/kg

COc1cc(N)c(Cl)cc1C(=O)NC1CC(C)N2CCCCC2C1 (stereo in doubt; 23)
Activity (Rattus norvegicus [1]): >5 mg/kg

COc1cc(N)c(Cl)cc1C(=O)NC1CC(C)N2CCCCC2C1 (stereo in doubt; 25)
ED50 (Mus musculus; [4]): > 30 mg/kg | Activity (Rattus norvegicus [1]): >1 mg/kg

COc1cc(N)c(Cl)cc1C(=O)NC1CCN2C(C)CCCC2C1 (stereo in doubt; 2)
Ratio [2]: 50

COc1cc(N)c(Cl)cc1C(=O)NCC1CCCN2CCCCC12 (single isomer, unassigned)
Activity (Rattus norvegicus [1]): >25 mg/kg

COc1cc(N)c(Cl)cc1C(=O)NCC1CCC2CCCCN2C1 (centres undefined)
Activity (Rattus norvegicus [1]): 5 mg/kg

COc1cc(N)c(Cl)cc1C(=O)NC1CC2CCCCN2C1 (single isomer, unassigned; form 2)
ED50 (Mus musculus): 0.1 mg/kg

COc1cc(N)c(Cl)cc1C(=O)NC1CCN2C(C)CCC2C1 (centres undefined)
ED50 (Mus musculus; [4]): 15 mg/kg | Activity (Rattus norvegicus [1]): 0.5 mg/kg | Ratio [2]: 30

COc1cc(N)c(Cl)cc1C(=O)NCC1CCC2CCCCN21 (single isomer, unassigned) [listing 1 of 2 here]
ED50 (Mus musculus; [4]): 15 mg/kg | Activity (Rattus norvegicus [1]): 0.2 mg/kg

COc1cc(N)c(Cl)cc1C(=O)NC1CCN2CCCC2C1 (stereo in doubt; 8 (Eq)) [listing 1 of 2 here]
ED50 (Mus musculus; [4]): 6 mg/kg | Activity (Rattus norvegicus [1]): 5 mg/kg

COc1cc(N)c(Cl)cc1C(=O)NC1CC(C)N2CCCC2C1 (stereo in doubt; 27) [listing 1 of 2 here]
Ratio [2]: 10

COc1cc(N)c(Cl)cc1C(=O)NC1CCN2CC(C)CCC2C1 (stereo in doubt; 18)
Activity (Rattus norvegicus [1]): 5 mg/kg

COc1cc(N)c(Cl)cc1C(=O)NCC1CCC2CCCCN21 (single isomer, unassigned) [listing 2 of 2 here]
Ratio [2]: 75

COc1cc(N)c(Cl)cc1C(=O)NC1CCN2C(CCCC2c2ccccc2)C1 (stereo in doubt; 21)
ED50 (Mus musculus; [4]): 5 mg/kg

COc1cc(N)c(Cl)cc1C(=O)NC1CC(C)N2CCCC2C1 (stereo in doubt; 29) [listing 2 of 2 here]
Ratio [2]: 34

COc1cc(N)c(Cl)cc1C(=O)NC1CCN2C(C)CCCC2C1 (stereo in doubt; 19) [BRL-20627]
Activity (Rattus norvegicus [1]): >5 mg/kg

COc1cc(N)c(Cl)cc1C(=O)NC1CC(C)N2CCCC2C1 (stereo in doubt; 28) [listing 1 of 2 here]
ED50 (Mus musculus): 50 mg/kg | Activity (Rattus norvegicus [1]): 1 mg/kg

COc1cc(N)c(Cl)cc1C(=O)NC1CC(C)N2CCCC2C1 (stereo in doubt; 27) [listing 2 of 2 here]
ED50 (Mus musculus): 10 mg/kg

COc1cc(N)c(Cl)cc1C(=O)NC1CCCN2CCCC12 (stereo in doubt; 11 (Ax)) [listing 2 of 2 here]
Ratio [2]: 0.2

COc1cc(N)c(Cl)cc1C(=O)NC1CCN2CCCCC12 (stereo in doubt) [listing 2 of 2 here]
ED50 (Mus musculus): 1.8 mg/kg | Activity (Rattus norvegicus [1]): 1 mg/kg

COc1cc(N)c(Cl)cc1C(=O)NC1CC(C)N2CCCC2C1 (stereo in doubt; 28) [listing 2 of 2 here]
Ratio [2]: 50

COc1cc(N)c(Cl)cc1C(=O)NC1CCC2CCCCN2CC1 (centres undefined)
ED50 (Mus musculus; [4]): > 50 mg/kg | Activity (Rattus norvegicus [1]): >25 mg/kg

COc1cc(N)c(Cl)cc1C(=O)NC1CCN2CCCC2C1 (stereo in doubt; 9 (Ax)) [listing 1 of 2 here]
ED50 (Mus musculus): 12 mg/kg | Activity (Rattus norvegicus [1]): 0.2 mg/kg

COc1cc(N)c(Cl)cc1C(=O)NC1CCCN2CCCCC2C1 (single isomer, unassigned; form 1) [listing 1 of 2 here]
ED50 (Mus musculus; [4]): > 50 mg/kg | Activity (Rattus norvegicus [1]): 1 mg/kg

COc1cc(N)c(Cl)cc1C(=O)NC1CCN2CCCC2C1 (stereo in doubt; 8 (Eq)) [listing 2 of 2 here]
Ratio [2]: 1.2

COc1cc(N)c(Cl)cc1C(=O)NC1CC2CCCCN2C1 (single isomer, unassigned; form 1)
ED50 (Mus musculus): >10 mg/kg | Activity (Rattus norvegicus [1]): >10 mg/kg

COc1cc(N)c(Cl)cc1C(=O)NC1CCCN2CCCCC2C1 (single isomer, unassigned; form 1) [listing 2 of 2 here]
Ratio [2]: > 50

COc1cc(N)c(Cl)cc1C(=O)NC1CCN2C(C)CCCC2C1 (stereo in doubt; 2) [BRL-20627]
ED50 (Mus musculus): 25 mg/kg

COc1cc(N)c(Cl)cc1C(=O)NCC1CC2CCCCN2C1 (centres undefined)
Activity (Rattus norvegicus [1]): >25 mg/kg | Activity (Rattus norvegicus [3]): inactive

COc1cc(N)c(Cl)cc1C(=O)NC1CCN2CCCC2C1 (stereo in doubt; 9 (Ax)) [listing 2 of 2 here]
Ratio [2]: 60

From ChEMBL document CHEMBL1126459, “Substituted Benzamides with Conformationally Restricted Side Chains. 3. Azabicyclo[x.y.0] derivatives as gastric prokinetic agents” (Bioorg Med Chem Lett, 1992)
